# Legend:
# [1] = Example 4: Phase I single-dose crossover bioequivalence study, 2.5 mg versus 2 mg tablets, healthy adult volunteers; type: in vivo, human; details: for AUC(0-t): AUC0-last; for Vd/F: Vz/F
# Description: Objectives: The objective of this study was to investigate the bioequivalence of guanfacine 2.5 mg tablets versus guanfacine 2 mg tablets.
# Methods: This Phase I study utilized a randomized, open-label, single-dose, three-treatment crossover design. Forty-eight (48) healthy adult volunteers completed the study. All subjects were randomly assigned to one of 6 treatment sequences and received a 2 mg and 2.5 mg tablet of guanfacine. During treatment periods 1-3, subjects received their assigned treatment (a single oral dose 2 mg or 2.5 mg after an overnight fast).
# [2] = Example 2: open-label dose-escalation pharmacokinetic and safety study in children and adolescents with ADHD; type: in vivo, human
# Description: Objective: The objective of this study was to assess the pharmacokinetics of controlled-release guanfacine after a single 2 mg dose or multiple doses of 2 mg and 4 mg from Table 2.
# Methods: An open-label, dose-escalation study in male and female children (aged 6-12 years) and adolescents (aged 13-17 years) with ADHD. Subjects weighed 25 kg (55 lb) or more but were not considered overweight in the opinion of the investigator. Their electrocardiogram readings (ECGs) were within normal ranges, and their blood pressure measurements were within the 95th percentile for their age, height, and gender. […] Informed consent was given by the patient's parent or guardian.
# […] The dose was then titrated down to 3 mg on days 30 to 32, and 2 mg on days 33 to 35. Pharmacokinetic assessments were made after the single 2 mg dose and after 6 days of repeated 2 mg and 4 mg doses.
# [3] = 28 children and adolescents with ADHD, 2-4 mg qd dose escalation
smiles,measurement,setting,value
N=C(N)NC(=O)Cc1c(Cl)cccc1Cl [guanfacine],AUC(0-t),"[1]; human, in vivo, 2.5 mg",~81.3 ng·h/mL
same,AUC(0-inf),"[1]; human, in vivo, 2.5 mg, AUC∞",~85 ng·h/mL
same,Cmax,"[1]; human, in vivo, 2.5 mg, mean Cmax",~2.49 ng/mL
same,Tmax,"[1]; human, in vivo, 2.5 mg, median Tmax",~6 h
same,CL/F,"[1]; human, in vivo, po, 2 mg",612 ± 303 mL/min
same,AUC(0-inf),"[1]; human, in vivo, po, 2 mg, AUC0-inf",64.2 ± 22.6 ng·h/mL
same,AUC(0-t),"[1]; human, in vivo, po, 2 mg",59.8 ± 20.9 ng·h/mL
same,Cmax,"[1]; human, in vivo, po, 2 mg, Cmax",1.71 ± 0.56 ng/mL
same,half-life,"[1]; human, in vivo, po, 2 mg, T½",17.7 ± 5.8 h
same,Vd/F,"[1]; human, in vivo, po, 2 mg",884 ± 382 L
same,Tmax,"[1]; human, in vivo, po, 2 mg, tmax",6 h
same,T½,"[1]; human, in vivo, po, 2.5 mg",16.7 ± 7.4 h
same,Vz/F,"[1]; human, in vivo, po, 2.5 mg",809 ± 406 L
same,AUC(0-inf),"[1]; human, in vivo, po, 2.5 mg, AUC0-inf",84.5 ± 34.2 ng·h/mL
same,AUC(0-t),"[1]; human, in vivo, po, 2.5 mg",77.8 ± 30.4 ng·h/mL
same,Cmax,"[1]; human, in vivo, po, 2.5 mg, Cmax",2.26 ± 0.67 ng/mL
same,Tmax,"[1]; human, in vivo, po, 2.5 mg, Tmax",5 h
same,half-life,"[1]; human, in vivo, po, 2.5 mg, T½",19 ± 6.6 h
same,Vd/F,"[1]; human, in vivo, po, 2.5 mg",915 ± 390 L
same,half-life,"[1]; human, in vivo, t1/2",16.7 ± 7.4 h
same,deaths,"[1]; single 2 mg and 2.5 mg doses, healthy adults",no deaths
same,"abnormalities on ECGs, hematologic parameters, or serum chemistries",[2]; [3],No clinically significant abnormalities
same,discontinuations due to adverse events,[2]; [3],no discontinuations
same,severity of most AEs,[2]; [3],mild to moderate
same,subjects with somnolence (AE possibly or probably due to treatment),[2]; [3],93%
same,subjects judged to have severe somnolence,"[2]; 28 children and adolescents with ADHD, 2-4 mg qd dose escalation, 6 subjects",21%
same,CL/F,"[2]; Day 14, 2 mg once daily oral, adolescents 13-17 yrs, ADHD patients, N = 14",826 ± 486 mL/min
same,CL/F,"[2]; Day 14, 2 mg once daily oral, children 6-12 yrs, ADHD patients, N = 14",552 ± 215 mL/min
same,CL/F,"[2]; Day 28, 4 mg once daily oral, adolescents 13-17 yrs, ADHD patients, N = 14",607 ± 166 mL/min
same,CL/F,"[2]; Day 28, 4 mg once daily oral, children 6-12 yrs, ADHD patients, N = 14",522 ± 212 mL/min
same,AUC(0-t),"[2]; both sexes, human, plasma, oral, 2 mg, dose of 2 mg of guanfacine, fasted patients ages 6-12 suffering from ADHD, read-out: AUC0-last",~56.9 ng·h/mL
same,AUC(0-inf),"[2]; both sexes, human, plasma, oral, 2 mg, dose of 2 mg of guanfacine, fasted patients ages 6-12 suffering from ADHD, read-out: AUC∞",~65.2 ng·h/mL
same,Cmax,"[2]; both sexes, human, plasma, oral, 2 mg, dose of 2 mg of guanfacine, fasted patients ages 6-12 suffering from ADHD, read-out: mean Cmax",~2.55 ng/mL
same,Tmax,"[2]; both sexes, human, plasma, oral, 2 mg, dose of 2 mg of guanfacine, fasted patients ages 6-12 suffering from ADHD, read-out: median Tmax",~5 h
same,AUC(0-t),"[2]; both sexes, human, plasma, oral, 2 mg, dose of 2 mg of guanfacine, fasted patients ages 13-17 suffering from ADHD, read-out: AUC0-last",~42.7 ng·h/mL
same,AUC(0-inf),"[2]; both sexes, human, plasma, oral, 2 mg, dose of 2 mg of guanfacine, fasted patients ages 13-17 suffering from ADHD, read-out: AUC∞",~47.2 ng·h/mL
same,Cmax,"[2]; both sexes, human, plasma, oral, 2 mg, dose of 2 mg of guanfacine, fasted patients ages 13-17 suffering from ADHD, read-out: mean Cmax",~1.69 ng/mL
same,Tmax,"[2]; both sexes, human, plasma, oral, 2 mg, dose of 2 mg of guanfacine, fasted patients ages 13-17 suffering from ADHD, read-out: median Tmax",~5 h
same,half-life,"[2]; both sexes, human, plasma, oral, 2 mg, measured for the 2 mg formulation, fasted patients ages 6-12 suffering from ADHD",14.4 ± 2.4 h
same,half-life,"[2]; both sexes, human, plasma, oral, 2 mg, measured for the 2 mg formulation, fasted patients ages 13-17 suffering from ADHD",17.9 ± 5.8 h
same,AUC(0-t),"[2]; both sexes, human, plasma, po, 2 mg, Day 14, 2 mg once daily oral, adolescents 13-17 yrs, ADHD patients, N = 14, read-out: AUC0-24",48.2 ± 16.1 ng·h/mL
same,Cmax,"[2]; both sexes, human, plasma, po, 2 mg, Day 14, 2 mg once daily oral, adolescents 13-17 yrs, ADHD patients, N = 14, read-out: Cmax",2.86 ± 0.77 ng/mL
same,Tmax,"[2]; both sexes, human, plasma, po, 2 mg, Day 14, 2 mg once daily oral, adolescents 13-17 yrs, ADHD patients, N = 14, read-out: Tmax",4.53 h
same,AUC(0-t),"[2]; both sexes, human, plasma, po, 2 mg, Day 14, 2 mg once daily oral, children 6-12 yrs, ADHD patients, N = 14, read-out: AUC0-24",70 ± 28.3 ng·h/mL
same,Cmax,"[2]; both sexes, human, plasma, po, 2 mg, Day 14, 2 mg once daily oral, children 6-12 yrs, ADHD patients, N = 14, read-out: Cmax",4.39 ± 1.66 ng/mL
same,Tmax,"[2]; both sexes, human, plasma, po, 2 mg, Day 14, 2 mg once daily oral, children 6-12 yrs, ADHD patients, N = 14, read-out: Tmax",4.98 h
same,half-life,"[2]; both sexes, human, plasma, po, 2 mg, single 2 mg oral dose, Day 1, adolescents 13-17 yrs, ADHD patients, N = 14",17.9 ± 5.77 h
same,AUC(0-t),"[2]; both sexes, human, plasma, po, 2 mg, single 2 mg oral dose, Day 1, adolescents 13-17 yrs, ADHD patients, N = 14, read-out: AUC0-t",42.7 ± 12.9 ng·h/mL
same,AUC(0-inf),"[2]; both sexes, human, plasma, po, 2 mg, single 2 mg oral dose, Day 1, adolescents 13-17 yrs, ADHD patients, N = 14, read-out: AUC0-∞",47.3 ± 13.7 ng·h/mL
same,Cmax,"[2]; both sexes, human, plasma, po, 2 mg, single 2 mg oral dose, Day 1, adolescents 13-17 yrs, ADHD patients, N = 14, read-out: Cmax",1.69 ± 0.43 ng/mL
same,Tmax,"[2]; both sexes, human, plasma, po, 2 mg, single 2 mg oral dose, Day 1, adolescents 13-17 yrs, ADHD patients, N = 14, read-out: Tmax",4.96 h
same,Vd/F,"[2]; both sexes, human, plasma, po, 2 mg, single 2 mg oral dose, Day 1, adolescents 13-17 yrs, ADHD patients, N = 14, read-out: Vz/F",1240 L
same,half-life,"[2]; both sexes, human, plasma, po, 2 mg, single 2 mg oral dose, Day 1, children 6-12 yrs, ADHD patients, N = 14",14.4 ± 2.39 h
same,AUC(0-t),"[2]; both sexes, human, plasma, po, 2 mg, single 2 mg oral dose, Day 1, children 6-12 yrs, ADHD patients, N = 14, read-out: AUC0-t",56.9 ± 22 ng·h/mL
